This note sets out measurements from the supplement of paper PMC10307832.

Common to all, as to assay: relative viability (nuclei count vs DMSO), 5 days (fraction); higher = more cells survive
Compound in experiment [1]: CC1CC(=O)N(C2=CN=C(N=C2N1C3CCCC3)NC4=C(C=C(C=C4)C(=O)NC5CCN(CC5)C)OC)C [NPK76-II-72-1] + C[C@@H](Oc1cc(-c2cnn(C3CCNCC3)c2)cnc1N)c1c(Cl)ccc(F)c1Cl [Crizotinib] (partner 1 µM)
The method in brief: (§1)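 After 5 days of treatment, lung cancer cells in 1536-well plates were fixed and stained in a single step (final 0.05% Triton X-100, 1% formaldehyde, 1 ug/ml Hoechst) and their nuclei counted on 4× images. Treatment had been applied by pin tool the day after seeding as one drug alone or as a fixed anchor-drug dose with five library-drug doses (not always all listed) in √10 steps. Relative viability is the nuclei count of treated wells divided by that of vehicle wells, and values are medians of duplicate plates.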

Compound in experiment [2]: CC1CC(=O)N(C2=CN=C(N=C2N1C3CCCC3)NC4=C(C=C(C=C4)C(=O)NC5CCN(CC5)C)OC)C [NPK76-II-72-1] + Cc1nc(Nc2ncc(C(=O)Nc3c(C)cccc3Cl)s2)cc(N2CCN(CCO)CC2)n1 [Dasatinib] (partner 0.075 µM)
In short, it runs like this: as §1

Compound in experiment [3]: CC1CC(=O)N(C2=CN=C(N=C2N1C3CCCC3)NC4=C(C=C(C=C4)C(=O)NC5CCN(CC5)C)OC)C [NPK76-II-72-1] + Cc1nc(NC(=O)N2CCC[C@H]2C(N)=O)sc1-c1ccnc(C(C)(C)C(F)(F)F)c1 [Alpelisib] (partner 2 µM)
The method in brief: as §1

Compound in experiment [4]: CC1CC(=O)N(C2=CN=C(N=C2N1C3CCCC3)NC4=C(C=C(C=C4)C(=O)NC5CCN(CC5)C)OC)C [NPK76-II-72-1] + Cc1cc(Nc2cc(N3CCN(C)CC3)nc(Sc3ccc(NC(=O)C4CC4)cc3)n2)n[nH]1 [Tozasertib] (partner 0.1 µM)
The method in brief:
as §1

For UMC-11, the relative viability is 0.622 in experiment [1] (first compound 0.01 µM); 0.574 in experiment [1] (first compound 0.03162 µM); 0.669 in experiment [1] (first compound 0.1 µM); 0.532 in experiment [1] (first compound 0.3162 µM); 0.707 in experiment [1] (first compound 1 µM); 0.45 in experiment [2] (first compound 0.01 µM). The relative viability in experiment [2] (first compound 0.03162 µM) was 0.509; in experiment [2] (first compound 0.1 µM), 0.441; in experiment [2] (first compound 1 µM), 0.447; in experiment [3] (first compound 0.01 µM), 0.967; in experiment [3] (first compound 0.03162 µM), 0.994; in experiment [3] (first compound 0.1 µM) it was 1.02. For the same cell line, the relative viability in experiment [3] (first compound 0.3162 µM) stood at 0.835; in experiment [3] (first compound 1 µM), 0.978; in experiment [4] (first compound 0.01 µM) it was 0.197; in experiment [4] (first compound 0.03162 µM), 0.186; in experiment [4] (first compound 0.1 µM), 0.197; in experiment [4] (first compound 1 µM) it was 0.205.
